Counter-ions that a name gives are not always drawn.
What was measured:
[1] = Antibiotic release from the crosslinked bioelastomer constructs into PBS at 37° C, UV/Vis of supernatant; type: physicochemical; details: ELP 150 mg/ml
[2] = system: Bacillus subtilis (ATCC 6633); assay: Agar disk bioassay (zone of inhibition) of antibiotics released from the crosslinked bioelastomer constructs; type: cell-based; details: for active compound concentration corresponding to zone of inhibition: day 1 supernatant; for active compound concentration corresponding to zone of inhibition / active drug concentration corresponding to zone of inhibition: vs serial dilutions
Method: To determine if the eluted antibiotics remained active, bioassays were performed in triplicate, for a subset of samples, using Bacillus subtilis (ATCC 6633) for both vancomycin and cefazolin. Vancomycin supernatants from days 1, 7, 14, 21, and 28, as well as a sample of the final construct (following resolubilization) were tested against vancomycin serial dilutions of 5 mg/ml, 1 mg/ml, 0.5 mg/ml, 0.1 mg/ml, and 0.05 mg/ml. […] Bacterial suspensions were prepared in tryptic soy broth following the recommendations set forth by the manufacturer for Bacillus subtilis (Lyfo Disk, MicroBiologics, St. Cloud, Minn.). After 30 minutes of incubation at 37° C. the suspensions were swabbed onto petri dishes containing Mueller-Hinton agar. Twenty microliters of each supernatant were pipetted onto 6 mm filter paper disks applied to the surface of the agar. The plates were incubated for 18 hours at 37° C. After incubation, zones of inhibition were measured twice in two randomly chosen directions. Supernatants from ELP control samples were tested in this same manner.

[3] = reported value, organism not stated; cited from earlier work

time in which the majority of cefazolin release took place ([1]; cefazolin-loaded ELP constructs) | Compound | active compound concentration corresponding to zone of inhibition ([2]; cefazolin released from crosslinked construct) [mg/mL] | active drug concentration corresponding to zone of inhibition ([2]; cefazolin released from crosslinked construct, day 3 supernatant) | zone of bacterial growth inhibition, biological activity of released cefazolin ([2]; supernatants of days 1-4 and final homogenized construct, all samples tested) | minimal inhibitory concentration [3] [µg/mL] | time period over which the ELP constructs release antibiotic ([1]; cefazolin-loaded ELP constructs, PBS 37° C, supernatant replaced days 1-10) [days] | time period over which the crosslinked ELP constructs release vancomycin ([1]; vancomycin-loaded crosslinked ELP constructs, PBS 37° C, supernatant replaced) [days] | zone of bacterial growth inhibition, biological activity of released vancomycin ([2]; all supernatants tested (days 1, 7, 14, 21, 28) and homogenized final sample) | active compound concentration corresponding to zone of inhibition ([2]; vancomycin released from crosslinked construct) [mg/mL] | active drug concentration corresponding to zone of inhibition ([2]; vancomycin released from crosslinked construct, day 7 supernatant)
initial two or three days | Cc1nnc(SCC2=C(C(=O)[O-])N3C(=O)[C@@H](NC(=O)Cn4cnnn4)[C@H]3SC2)s1.[Na+] [cefazolin, cefazolin sodium salt] | ~2 | less than 0.5 mg/ml | biologically active | 0.25 to 1 |  |  |  |  | 
 | CN[C@H](CC(C)C)C(=O)N[C@H]1C(=O)N[C@@H](CC(N)=O)C(=O)N[C@H]2C(=O)N[C@H]3C(=O)N[C@H](C(=O)N[C@H](C(=O)O)c4cc(O)cc(O)c4-c4cc3ccc4O)[C@H](O)c3ccc(c(Cl)c3)Oc3cc2cc(c3O[C@@H]2O[C@H](CO)[C@@H](O)[C@H](O)[C@H]2O[C@H]2C[C@](C)(N)[C@H](O)[C@H](C)O2)Oc2ccc(cc2Cl)[C@H]1O [vancomycin, vancomycin hydrochloride] |  |  |  | 1.5 to 3 | ≥ 10 | ≥ 28 | retained biological activity | ~1 | less than 0.1 mg/ml

From patent US20090098110A1, “INJECTABLE FORMS OF SOLID-FORMING CROSSLINKED BIOELASTIC BIOPOLYMERS FOR LOCAL DRUG DELIVERY” (Duke University, priority 2007, published 2009)
